The structures appear in SMILES notation.

One experiment concerns the target T1, RbMDH (Rickettsia bellii, UniProt Q1RIT9).
T1 construct: gene mdh
It counts as biochemical.

The test system of another experiment is AncMDH2. It is filed as biochemical, synthetic construct. Particulars: 200 uM NADH, 50 mM Tris pH 7.5, 50 mM KCl, 25 C.

T1 sequence (Q1RIT9 whole entry, looked up): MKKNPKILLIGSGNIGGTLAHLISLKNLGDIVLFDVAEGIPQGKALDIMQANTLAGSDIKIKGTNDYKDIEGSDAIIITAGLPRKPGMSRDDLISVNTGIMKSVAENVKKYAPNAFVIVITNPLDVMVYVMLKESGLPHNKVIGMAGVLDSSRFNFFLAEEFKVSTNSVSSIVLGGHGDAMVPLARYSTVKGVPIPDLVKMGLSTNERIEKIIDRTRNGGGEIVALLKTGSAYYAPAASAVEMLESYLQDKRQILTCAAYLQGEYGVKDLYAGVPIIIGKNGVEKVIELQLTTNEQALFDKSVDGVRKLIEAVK

As for `O=C(O)CC(=O)C(=O)O` [oxaloacetate], the KM entry on RbMDH is reported as “RbMDH is a representative α-proteobacterial MDH from Rickettsia bellii”.

Usually Km stands for the substrate concentration at which the rate is half of its maximum. For `CC(=O)C(=O)O` [pyruvate], the Km with AncMDH2 came to 20 mM.

Values taken from publication PMC4109310, “An atomic-resolution view of neofunctionalization in the evolution of apicomplexan lactate dehydrogenases” (eLife, 2014).
